Holding throughout (format): biochemical
For assay [1], the target named is T1, bovine eNOS (Bos taurus, UniProt P29473).
T1 construct: made in house; host or cells: E. coli (plasmid Bov-eNOSpCW)
As to the kind of experiment: NOS enzyme inhibitory assay (hemoglobin capture), eNOS. Particulars: for IC50: bovine eNOS, 10 μM L-arginine, * = no inhibition observed up to the concentration listed. The protocol: All of the NOS isoforms used were recombinant enzymes overexpressed in E. coli from different sources. Nitric oxide formation from NOS was monitored by the hemoglobin capture assay as described in the literature.
Expression of bovine eNOS: An overnight culture of Bov-eNOSpCW was used to inoculate 0.5 liter (in a 2.8-liter Fernbach flask) of modified TB (20 g of yeast extract, 10 g of bacto-tryptone, 2.65 g of KH2PO4, 4.33 g of Na2HPO4 and 4 ml of glycerol per liter) containing ampicillin ([…]) and chloramphenicol ([…]). The cultures were grown to an OD600 of z0.8 at 22° C. (200 rpm) and induced with 0.5 mM IPTG. One hour before IPTG induction, d-aminolevulinic acid (0.5 mM final) was added and, at the time of IPTG induction, riboflavin ([…]) and ATP (1 mM final) were also added. After induction, the flasks were kept in the dark at 22° C. (200 rpm). The cells were harvested 48 h after induction, and the cell pellet was frozen at −80° C. until purification was carried out.
Purification of bovine eNOS. The purification was typically carried out with eNOS from 2 liters of E. coli culture. The eNOS protein was purified using a modification of the published protocol for nNOS (14). The cells were resuspended in buffer C [50 mM Tris-Cl, pH 7.8, 1 mM EDTA, 1 mM DTT, 10% glycerol (v/v), 150 mM NaCl, 0.1 mM phenylmethylsulfonyl fluoride, […]], lysed by pulsed sonication and then centrifuged to sediment the cell debris. The supernatant was applied to a 2′,5′-ADP Sepharose 4B column equilibrated in buffer D [50 mM Tris-Cl, pH 7.8, 0.1 mM EDTA, 0.1 mM dithiothreitol, 150 mM NaCl, 10% glycerol (v/v)]. The column was washed with 20 column volumes of buffer B and again with 20 column volumes of buffer B containing 600 mM NaCl. Finally, protein was eluted with buffer B containing 600 mM NaCl and 5 mM 2′-AMP. The fractions were screened for absorption in the Soret region (A400) and hemoprotein-containing fractions were pooled and concentrated (Centriprep 50, Amicon). Repeated dilution/concentration [50 mM Tris-Cl, pH 7.8, 0.1 mM EDTA, 0.1 mM dithiothreitol, 10% glycerol (vol/vol)] was used to reach a final concentration of 150 mM NaCl and commensurately reduce the 2′-AMP content. […] The purified eNOS is stored in the presence of 1 mM L-arginine.
eNOS washing: eNOS contains a significant amount of L-arginine, which will interfere with the enzyme assay. The L-arginine can be removed by several dilution and concentration steps using an Amico concentrator. The dilution buffer is 10 ml Tris-HCl 50 mM containing 0.1 mM EDTA, 400 mM NaCl, 10% glycerol and 1 mM beta-mercaptoethanol. The above dilution and concentration operation was repeated three times to give purified eNOS.
Nitric oxide formation from NOS was monitored by the hemoglobin capture assay as described previously. (Hevel, J. M.; Marletta, M. A. Nitric Oxide Synthase Assays. Methods Enzymol. 1994, […], 250-258).
The selectivity of an inhibitor is defined as the ratio of the respective Ki values.

The target of assay [2] is T2, rat nNOS (Rattus norvegicus, UniProt P29476).
T2 construct: made in house; host or cells: E. coli (plasmid pCWnNOS)
Put plainly: NOS enzyme inhibitory assay (hemoglobin capture), nNOS. The settings on record: for IC50: rat nNOS, 10 μM L-arginine. The method in brief: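 Recombinant rat nNOS expressed in E. coli and purified by calmodulin-Sepharose and 2′,5′-ADP-Sepharose chromatography. NO production followed by hemoglobin capture; inhibition expressed as Ki, selectivity as ratio of Ki values.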

For assay [3], the target named is T3, murine iNOS (Mus musculus, UniProt P29477).
T3 construct: made in house; host or cells: E. coli (plasmid pCWiNOS)
Put plainly: NOS enzyme inhibitory assay (hemoglobin capture), iNOS. Particulars: for IC50: murine iNOS, 10 μM L-arginine. In short, it runs like this: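 Recombinant murine iNOS, overexpressed in E. coli from plasmid pCWiNOS (induced with 1 mM IPTG) and purified on a 2′,5′-ADP-Sepharose 4B column with elution by 10 mM 2′(3′)-AMP, 10 μM BH4 and 0.3 M NaCl, was used to test inhibitors. Nitric oxide production was followed with the hemoglobin capture assay, and IC50 values were determined.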

Setting [4] is: Table 1b, ratio of Ki values eNOS/nNOS.
The mark [5] stands for this setting: Table 1b, ratio of Ki values iNOS/nNOS.
The mark [6] stands for this setting: Table 1a, apparent Ki calculated from IC50, Km 1.7 μM, read-out: calc. Ki eNOS.
The mark [7] stands for this setting: Table 1a, apparent Ki calculated from IC50, Km […], read-out: calc. Ki nNOS.
[8] abbreviates: Table 1a, apparent Ki calculated from IC50, Km […], read-out: calc. Ki iNOS.

Like-named read-outs stand apart in the source and are kept apart here.

Turning to `Cl.Cl.Cl.Cl.Nc1nc(CC2CNCC2NCCNCc2ccc(Cl)cc2)cs1` (racemic) [Compound P-82], the Ki in assay [1] (Table 1b, read-out: Ki eNOS) turned out to be 3 µM; in assay [2] (Table 1b, read-out: Ki nNOS) it was 1.7 µM; in assay [3] (Table 1b, read-out: Ki iNOS), 3.4 µM. Besides, in assay [2] (setting [4]), the Selectivity n/e amounted to 1.8. Moreover, the Selectivity n/i in assay [2] (setting [5]) is recorded as 2.

For `Cc1cc(N)nc(CC2CNCC2NCCNCc2cccc(C(F)(F)F)c2)c1.Cl.Cl.Cl.Cl` (racemic) [Compound P-52], the Ki was 116 µM in assay [1] (Table 1b, read-out: Ki eNOS); 0.206 µM in assay [2] (Table 1b, read-out: Ki nNOS); 13.6 µM in assay [3] (Table 1b, read-out: Ki iNOS). In assay [2] (setting [4]), the Selectivity n/e is 563.6. Also, in assay [2] (setting [5]), the Selectivity n/i came to 65.8.

With `Cc1cc(N)nc(CC2CNCC2NCCNCCc2ccc(F)cc2)c1.Cl.Cl.Cl.Cl` (racemic) [Compound P-70], the Ki was 17.7 µM in assay [1] (Table 1b, read-out: Ki eNOS); 0.027 µM in assay [2] (Table 1b, read-out: Ki nNOS); 4.6 µM in assay [3] (Table 1b, read-out: Ki iNOS). For the same compound, the Selectivity n/e in assay [2] (setting [4]) was 656.2. Further, the Selectivity n/i in assay [2] (setting [5]) was found to be 170.3.

As for `Cl.Cl.Cl.Nc1cccc(C[C@H]2CNC[C@H]2NCCCc2ccccc2)n1` (racemic) [Compound P-27], the values for the Ki in assay [1] (setting [6]), in assay [2] (setting [7]) and in assay [3] (setting [8]) were 88.5 µM, 3.17 µM and 166 µM, respectively. For the same compound, the IC50 in assay [1] (Table 1a) came out at 609 µM; in assay [2] (Table 1a) it was 27.5 µM; in assay [3] (Table 1a) it was 366 µM. Also, in assay [2] (Table 1a, Ki(eNOS)/Ki(nNOS)), the Selectivity n/e stood at 27.9. The Selectivity n/i in assay [2] (Table 1a, Ki(iNOS)/Ki(nNOS)) came to 52.43.

`Nc1cccc(CC2CNCC2NC2CCN(Cc3ccccc3)C2)n1` (racemic) [Compound P-21]: the Ki in assay [1] (setting [6]) is 171 µM; in assay [2] (setting [7]), 24.4 µM; in assay [3] (setting [8]) it was 286 µM. In addition, the IC50 in assay [1] (Table 1a) is 1170 µM; in assay [2] (Table 1a) it was 212 µM; in assay [3] (Table 1a), 630 µM. This compound had a Selectivity n/e in assay [2] (Table 1a, Ki(eNOS)/Ki(nNOS)) of 6.99. For the same compound, the Selectivity n/i in assay [2] (Table 1a, Ki(iNOS)/Ki(nNOS)) is given as 11.70.

Consider `Cc1cc(N)nc(C[C@H]2CNC[C@H]2OCCNC(=O)Cc2cccc(F)c2)c1.Cl.Cl` (racemic) [Compound P-80, (±)-N-{2-{cis-4-[(6-amino-4-methylpyridin-2-yl)methyl]pyrrolidin-3-yloxy}ethyl}-2-(3-fluorophenyl)acetamide dihydrochloride], for which the Ki amounted to 85 µM in assay [1] (Table 1b, read-out: Ki eNOS); 5 µM in assay [2] (Table 1b, read-out: Ki nNOS); 19 µM in assay [3] (Table 1b, read-out: Ki iNOS). Besides, the Selectivity n/e in assay [2] (setting [4]) came to 17. Further, in assay [2] (setting [5]), the Selectivity n/i stood at 3.8.

In the case of `Cc1cc(N)nc(CC2CNCC2NCCNCc2ccc(Cl)c(Cl)c2)c1.Cl.Cl.Cl.Cl` (racemic) [Compound P-65], the Ki amounted to 63.2 µM in assay [1] (Table 1b, read-out: Ki eNOS); 0.414 µM in assay [2] (Table 1b, read-out: Ki nNOS); 23.8 µM in assay [3] (Table 1b, read-out: Ki iNOS). Also, the Selectivity n/e in assay [2] (setting [4]) amounted to 153. The Selectivity n/i in assay [2] (setting [5]) is 57.4.

Take `Cc1cc(N)nc(C[C@H]2CNC[C@@H]2NCCNCc2ccc(F)cc2)c1.Cl.Cl.Cl.Cl` (racemic) [Compound P-57]: the Ki in assay [1] (Table 1b, read-out: Ki eNOS) came to 78.8 µM; in assay [2] (Table 1b, read-out: Ki nNOS), 0.87 µM; in assay [3] (Table 1b, read-out: Ki iNOS), 27.4 µM. In addition, the Selectivity n/e in assay [2] (setting [4]) amounted to 90.1. The Selectivity n/i in assay [2] (setting [5]) is on record as 31.3.

As to `Cc1cc(N)nc(C[C@H]2CNC[C@H]2NC(=O)CNCCc2cccc(F)c2)c1.Cl.Cl.Cl` (racemic) [Compound P-77, (±)-N-{cis-4-[(6-amino-4-methylpyridin-2-yl)methyl]pyrrolidin-3-yl}-2-(3-fluorophenethylamino)acetamide trihydrochloride], the Ki in assay [1] (Table 1b, read-out: Ki eNOS) was determined as 26 µM; in assay [2] (Table 1b, read-out: Ki nNOS), 0.053 µM; in assay [3] (Table 1b, read-out: Ki iNOS) it was 1.4 µM. In addition, in assay [2] (setting [4]), the Selectivity n/e came to 500. Also, the Selectivity n/i in assay [2] (setting [5]) came to 26.4.

As for `Cl.Cl.Nc1cccc(CC2CNCC2O)n1` (racemic) [Compound P-11], the Ki in assay [1] (setting [6]) is 341 µM; in assay [2] (setting [7]), 6.94 µM; in assay [3] (setting [8]), 25.2 µM. In addition, the IC50 in assay [1] (Table 1a) came out at 2350 µM; in assay [2] (Table 1a), 60.3 µM; in assay [3] (Table 1a), 56 µM. Also, the Selectivity n/e in assay [2] (Table 1a, Ki(eNOS)/Ki(nNOS)) is listed as 49.11. This compound also registered a Selectivity n/i in assay [2] (Table 1a, Ki(iNOS)/Ki(nNOS)) of 3.64.

A word on the IC50: it is the concentration needed to halve the response being measured. Read a high IC50 as weaker potency.
